# Laboratory results taken from US9073982B2, “Targets for regulation of angiogenesis” (The University of North Carolina at Chapel Hill, priority 2008, dated 2015).
# Columns and labels:
# [1] = test system: HCAEC; assay: Scratch wound assay on HCAEC; format: cell-based, human; details: Jak3 20 nM-200 pM
# Procedure: HCAEC were plated at 10,000 cells/well onto a 96 well plate and allowed to become confluent in EGM-2 with BulletKit growth supplements. The cells were quiesced in EGM-2 with 0.1% FBS without BulletKit growth supplements for 18 hours. The wound was formed using a 1 ml pipette tip. A 20 nM-200 pM dose curve of recombinant human Jak3 (Millipore, Temecula, Calif.) was added to the cells. Each concentration was performed in triplicate and the experiment was repeated three times with similar results. Migration distance was measured at 12 hours and then every 4 hours until wound closure in all wells. Data were recorded as percent of wound closed at each time point.
# [2] = test system: chick chorioallantoic membrane; assay: Chick chorioallantoic membrane (CAM) assay; format: in vivo, chicken; details: 100 ng per disk, evaluated day 3 after disk placement
# Procedure: On day 4, the eggs were cracked into sterile Petri dishes and incubated at 99° F. in 3% CO2, 65% humidity. For application of drug onto the CAM, Whatman grade 1 filter paper was cut into circles with a 6 mm diameter paper punch and autoclaved. To decrease inflammatory effects of the disk, the discs were soaked in 1 ml of 3.0 mg/ml cortisone acetate in absolute ETOH and air dried for 60 min in a laminar flow hood. On day 8, 5 disks per egg were placed on the outer third of the CAM, 2-3 mm from a vessel. Control PBS 7 μl was added to the discs for the control CAMs, and SFRP2 100 ng/7 μl PBS was added to the disks for the treated CAMs (n=5 control disks and 5 SFRP2-treated disks). The CAMs were evaluated under a stereomicroscope on day 3 after disk placement. Pictures were taken with a Wild M-4 70 Macrosystem, and angiogenesis was quantified using Metamorph Software with an angiogenesis module.
# Fertilized chickens eggs (NC State University Chicken Research Faint) were incubated at 100.4° F. in an egg turner (Model#1588 Genesis Hova-Bator, GQF Mfg. Co., Inc.) for 3 days. […] CAMs were evaluated under a stereomicroscope on day 3 after disk placement. Pictures were taken with a Wild M-4 70 Macrosystem and angiogenesis was quantified using Metamorph Software with an angiogenesis module.
# [3] = test system: HCAEC; assay: Endothelial cell proliferation assay (MTT); format: cell-based, human; details: Jak3, 48 hours
# Procedure: HCAEC were seeded on a 96 well plate at a concentration of 2000 cells/well and allowed to proliferate for 24 hrs in EGM-2 with BulletKit growth supplements. The cells were then quiesced in EGM-2 with 0.1% FBS without BulletKit growth supplements for 18 hours. Media was replaced with fresh EGM-2 with BulletKit growth supplements and the cells were treated in triplicate with: PBS alone; recombinant murine VEGF (60 ng/mL); or Jak3 (at a concentration of 200 nM-200 pM). After 48 h, 10 μl of the colorimetric compound 3-(4,5-dimethylthiazol-2-yl)-2,5-diphenyl tetrazolium bromide (MTT) (5 mg/mL) was added to each well and allowed to incubate for 4 h at 37° C. All but 25 μl of media in each well was removed and 50 μl dimethyl sulfoxide (DMSO) was added. Following a 10 min incubation at 37° C., the A540 was measured using a microplate reader. A540 was converted to number of cells based on a standard curved created by seeding a 96-well plate with known concentrations of cells, as determined by hemocytometry, and measuring their A540 after 4 hrs incubation with MTT.
# [4] = test system: HCAEC; assay: Tube formation assay on HCAEC; format: cell-based, human; details: Jak3 20 nM-200 pM, 8 hours
# Procedure: ECMATRIX (Chemicon, Temecula, Calif.) was thawed, diluted, and solidified in a 96 well plate according to the manufacturer's instructions. HCAEC were seeded onto the matrix at 2,000 cells/well in 150 μl of EGM-2 with 5% FBS without BulletKit growth supplements. A 20 nM-200 pM dose curve of recombinant human Jak3 was added to the cells and the plates were returned to 37° C., 5% CO2 for 8 hours. Each concentration was performed in triplicate and the experiment was repeated three times with similar results. Wells were evaluated under a Nikon Eclipse TS100 microscope at 4× magnification and pictures were taken with a Nikon CoolPix 995 digital camera. Angiogenesis was quantified by counting branch points in the resulting image.
# The role of STAT3 activation in Jak3-mediated tube formation was evaluated using a small peptide inhibitor of phosphorylated STAT3 (P-STAT3). ECMATRIX was solidified in wells of a 96 well plate. HCAEC were seeded onto the matrix at 2,000 cells/well in 150 μl of EGM-2 with 5% FBS without additional BulletKit growth supplements. Wells were treated in triplicate with: PBS alone, PBS+100 μM P-STAT3 inhibitor, 20 nM Jak3, or 20 nM Jak3+100 μM P-STAT3 inhibitor. Wells were photographed at 8 hours and tube formation was quantified by counting branch points in the resulting image.
# [5] = test system: Human coronary artery endothelial cells (HCAEC); assay: Hypoxia-induced endothelial cell apoptosis assay (caspase 3); format: cell-based; details: Jak3 20 nM-200 pM, 36 hours hypoxia
# Procedure: Human coronary artery endothelial cells (HCAEC) were used for apoptosis assays because apoptosis could not be induced in the MEC cells. HCAECs were grown in 10-cm dishes (Becton Dickinson, Franklin Lakes, N.J.) with endothelial cell basal medium-2 (EGM-2) BulletKit media (Clonetics, San Diego, Calif.) until 80% confluent. Medium was then replaced with optimal medium according to different assays. The hypoxic condition was created by incubating HCAECs in EGM-2 media without BulletKit growth factors at 37° C. in a hypoxia chamber with an atmosphere of 5% CO2/95% N2. The oxygen level in the chamber was controlled to 1.0%. Apoptosis was determined by measuring the activity of cleaved caspase 3 by using a caspase-specific fluorogenic substrate according to the protocol for the Caspase 3 Assay Kit (Sigma). HCAECs were lysed after treatment with concentrations of SFRP2 (70 pM and 700 pM) for 36 h under hypoxia. […] The enzyme-catalyzed release of 7-amino-4-methyl coumarin (AMC) was measured by a fluorescence microplate reader.
# HCAEC were seeded onto a 96 well plate at 2,000 cells/well in EGM-2 with BulletKit growth supplements. […] Apoptosis was determined by measuring the activity of cleaved caspase 3 by using a caspase-specific fluorogenic substrate according to the protocol for the Apo-ONE® Homogeneous Caspase-3/7 Assay (Promega, Madison, Wis.). […]
substance,measurement,setting,value
Jak3: recombinant human Jak3 (Millipore),endothelial cell migration (percent of wound closed),[1],increased endothelial cell migration
same,"angiogenesis on the CAM (branch points, segments, tube area, tube length)",[2],induced angiogenesis on the CAM
same,cell proliferation,[3],increased cell proliferation
same,endothelial tube formation (branch points),[4],induced by Jak3 in a concentration-dependent manner
same,hypoxia induced endothelial cell apoptosis (caspase 3 activity),[5],protected against hypoxia induced endothelial cell apoptosis
